Assays:
Format in all cases: cell-based
OPRK1 [1] = experiment: Level of expression of OPRK1 by immunoblotting in A549 cells; conditions: A549 lung cancer cells, 1 nM to 10 μM for 48 h
Experimental: (§1) In order to determine the effect of 6-β-naltrexol or naltrexone on the level of expression of OPRK1, A549 lung cancer or HCT116 colon cancer cells were seeded onto 6-well plates at a density of 2×10^5 cell/well, and allowed to adhere overnight. Cells were then cultured in the presence of naltrexone or 6-β-naltrexol at concentrations of 1 nM, 10 nM, 100 nM, 1 μM or 10 μM for a further 48 h. Cells were then harvested and processed for measurements of OPRK1, opioid receptor-μ1 (OPRM1) and GAPDH using standard immunoblotting techniques.

OPRK1 [2] = experiment: Level of expression of OPRK1 by immunoblotting in HCT116 cells; conditions: HCT116 colon cancer cells, 1 nM to 10 μM for 48 h
Experimental: as §1

HCT116 cells = experiment: Priming with 6-β-naltrexol, then chemotherapy agent; cell number and viability by trypan blue counting, HCT116; conditions: FIG. 2d
Experimental: (§2) The impact of combining 6-β-naltrexol with other chemotherapy agents was tested by culturing cells according to a treatment schedule that involved two phases of treatment. The first phase involved priming with 10 nM 6-β-naltrexol or 10 μM 6-β-naltrexol for 48 h, before treatment with another drug for a further 48 h. A549 and HCT116 cells were seeded into 6-well plates at a density of 2×10^5 cells/well and left to adhere overnight. Media was removed after 48 h, and cells were rinsed gently with drug-free medium. Fresh culture medium that contained gemcitabine (GEM) or oxaliplatin (OXP) was then added to the cells. The concentrations of the chemotherapy agents used were approximately ¼ IC50, as established previously [Liu W M, Fowler D W, Smith P, Dalgleish A G. Pre-treatment with chemotherapy can enhance the antigenicity and immunogenicity of tumours by promoting adaptive immune responses. Br J Cancer. 2010 Jan. 5; 102(1):115-23. doi: 10.1038/sj.bjc.6605465.]. Cells were then left for a further 48 h before assessment of cell number of viability by cell counting using trypan blue dye as a way of discriminating live and dead cells. Cytostasis was indicated by a reduction in cell number and no associated reduction in cell viability.

A549 cells = experiment: Priming with 6-β-naltrexol, then chemotherapy agent; cell number and viability by trypan blue counting, A549; conditions: FIG. 2c
Experimental: as §2

[3] = 10 nM or 10 μM 6-β-naltrexol 48 h, then gemcitabine or oxaliplatin at approx. 1/4 IC50 for 48 h
[4] = 10 nM or 10 μM 6-β-naltrexol alone (6BN-0)

SMILES	level of expression of OPRK1 (OPRK1 [1])	level of expression of OPRK1 (OPRK1 [2])	cytotoxic effect of chemotherapeutic agents after priming (HCT116 cells; [3])	cytotoxicity of the agent alone (HCT116 cells; [4])	cytotoxic effect of chemotherapeutic agents after priming (A549 cells; [3])	cytotoxicity of the agent alone (A549 cells; [4])
O=C1CC[C@@]2(O)[C@H]3Cc4ccc(O)c5c4[C@@]2(CCN3CC2CC2)[C@H]1O5 [naltrexone, reference compound]	increase the level of expression of ORPK1	down-regulates the level of expression of OPRK1	–	–	–	–
Oc1ccc2c3c1OC1[C@H](O)CC[C@@]4(O)[C@@H](C2)N(CC2CC2)CC[C@]314 (stereo partly drawn) [6-β-naltrexol, 17-(Cyclopropylmethyl)-4,5-epoxymorphinan-3,6 beta,14-triol]	increase the level of expression of ORPK1	increases the level of expression of OPRK1	cytotoxic effect of both chemotherapeutic agents is increased	absence of any independent increase in cytotoxicity	cytotoxic effect of both chemotherapeutic agents is increased	absence of any independent increase in cytotoxicity
